# Assay results taken from patent publication US20250034135A1, “ANTI-APOPTOTIC PROTEIN BCL-2 INHIBITOR, PHARMACEUTICAL COMPOSITION AND USES THEREOF” (HANGZHOU HEALZEN THERAPEUTICS CO., LTD., priority 2021, published 2025).
# Experiments:
# [1] = target: BCL-XL (Homo sapiens (Human), UniProt Q07817); assay: BCL-XL enzyme molecular level activity test (HTRF, binding to BIM peptide); details: binding of BCL-XL to BIM peptide, values in nM, read-out: BCL-XL inhibitory activity (IC50)
# Procedure: In a white shallow 384-well plate, a total reaction volume was 10 μL. Specifically, it included 2 μL of the compound to be tested (2% DMSO), […] His-tagged recombinant protein, and 4 μL Biotin-tagged BIM protein peptide. After 1 hour of reaction, 5 μL of each Anti-His and streptavidin-tagged XL665 antibody diluents diluted with a detection buffer were added. After incubating at room temperature for 4 hours, the values were read using the Envision multifunctional microplate reader to detect the effect of the compound to be tested on the binding ability of BCL-XL to BIM protein peptides. The Envision parameter settings were exciting light at 320 nm, and emitting light at 615 nm and 665 nm. The binding ability of anti-apoptotic proteins to Bim protein peptides was indirectly reflected by the signal ratio of 665 nm and 615 nm. In the reaction, background wells without BCL2 and active wells for full binding of recombinant proteins without compounds and Bim protein peptides were set up.
# [2] = target: BCL2 (Homo sapiens (Human), UniProt P10415); assay: Molecular level activity test of anti-apoptotic protein BCL2 (HTRF, binding to Bim peptide); details: HTRF, binding of BCL2 to Bim peptide; read-out: BCL2 nM (inhibitory activity, IC50)
# Procedure, shortened: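 Competition binding format: recombinant His-BCL2 and a biotin-Bim peptide are incubated with compound for 1 h, followed by 4 h at room temperature with HTRF detection antibodies.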
# Chain of BCL2 (P10415 whole entry): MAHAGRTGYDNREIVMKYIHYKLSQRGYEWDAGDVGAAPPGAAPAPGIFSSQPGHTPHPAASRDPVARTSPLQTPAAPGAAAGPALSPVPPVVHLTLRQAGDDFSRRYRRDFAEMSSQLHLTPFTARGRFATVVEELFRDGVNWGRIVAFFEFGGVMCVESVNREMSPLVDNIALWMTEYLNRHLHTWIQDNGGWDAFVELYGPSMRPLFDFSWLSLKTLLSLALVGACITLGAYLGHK
# Chain of BCL-XL (Q07817 whole entry): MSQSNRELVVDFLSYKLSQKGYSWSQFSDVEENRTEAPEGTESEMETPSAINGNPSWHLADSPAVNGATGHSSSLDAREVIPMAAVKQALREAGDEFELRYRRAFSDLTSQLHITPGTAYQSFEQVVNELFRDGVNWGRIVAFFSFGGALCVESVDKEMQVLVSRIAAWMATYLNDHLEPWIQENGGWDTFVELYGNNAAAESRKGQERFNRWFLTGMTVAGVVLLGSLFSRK
SMILES,IC50 [1] [nM],IC50 [2] [nM]
"CC(C)c1ccccc1[C@@H]1CN(Cc2ccc3c(c2)OCO3)CCN1C1CC2(CCN(c3cc(Oc4cnc5[nH]ccc5c4)c(C(=O)NS(=O)(=O)c4ccc(NC[C@H]5CC[C@](C)(O)CC5)c([N+](=O)[O-])c4)cc3F)CC2)C1 [compound 224, 2-((1H-pyrrolo[2,3-b]pyrid-5-yl)oxy)-4-(2-((R)-4-(benzo[d][1,3]dioxocyclopent-5-ylmethyl)-2-(2-isopropylphenyl)piperazin-1-yl)-7-azaspiro[3.5]non-7-yl)-5-fluoro-N-((4-((((1r, 4r)-4-hydroxy-4-methylcyclohexyl)methyl)amino)-3-nitrophenyl)sulfonyl)benzamide]",> 500,< 10
"CC(C)c1ccccc1[C@@H]1CN(Cc2cccc3c2OCO3)CCN1C1CC2(CCN(c3cc(Oc4cnc5[nH]ccc5c4)c(C(=O)NS(=O)(=O)c4ccc(NCC5(F)CCOCC5)c([N+](=O)[O-])c4)cc3F)CC2)C1 [compound 204, (R)-2-((1H-pyrrolo[2,3-b]pyrid-5-yl)oxy)-4-(2-(4-(benzo[d][1,3]dioxocyclopent-4-ylmethyl)-2-(2-isopropylphenyl)piperazin-1-yl)-7-azaspiro[3.5]non-7-yl)-5-fluoro-N-((4-(((4-fluorotetrahydro-2H-pyran-4-yl)methyl)amino)-3-nitrophenyl)sulfonyl)benzamide]",> 500,< 10
"CC(C)c1ccccc1[C@@H]1CN(Cc2ccc3c(c2)OCCO3)CCN1C1CC2(CCN(c3cc(Oc4cnc5[nH]ccc5c4)c(C(=O)NS(=O)(=O)c4ccc(NCC5(F)CCOCC5)c([N+](=O)[O-])c4)cc3F)CC2)C1 [compound 207, (R)-2-((1H-pyrrolo[2,3-b]pyrid-5-yl)oxy)-4-(2-(4-((2,3-dihydrobenzo[b][1,4]dioxane-6-yl)methyl)-2-(2-isopropylphenyl)piperazin-1-yl)-7-azaspiro[3.5]non-7-yl)-5-fluoro-N-((4-(((4-fluorotetrahydro-2H-pyran-4-yl)methyl)amino)-3-nitrophenyl)sulfonyl)benzamide]",> 500,< 10
COc1ccc(CN2CCN(C3CC4(CCN(c5cc(Oc6cnc7[nH]ccc7c6)c(C(=O)NS(=O)(=O)c6ccc(NCC7(F)CCOCC7)c([N+](=O)[O-])c6)cc5F)CC4)C3)[C@H](c3ccccc3C(C)C)C2)c2c1OCO2 [compound 205],> 500,< 10
"CC(C)c1ccccc1[C@@H]1CN(Cc2ccc(C(F)(F)F)cc2)CCN1C1CC2(CCN(c3cc(Oc4cnc5[nH]ccc5c4)c(C(=O)NS(=O)(=O)c4ccc(NC[C@H]5CC[C@](C)(O)CC5)c([N+](=O)[O-])c4)cc3F)CC2)C1 [compound 216, 2-((1H-pyrrolo[2,3-b]pyrid-5-yl)oxy)-5-fluoro-N-((4-((((1r, 4r)-4-hydroxy-4-methylcyclohexyl)methyl)amino)-3-nitrophenyl)sulfonyl)-4-(2-((R)-2-(2-isopropylphenyl)-4-(4-(trifluoromethyl)benzyl)piperazin-1-yl)-7-azaspiro[3.5]non-7-yl)benzamide]",> 500,< 10
"CC(C)c1ccc(CN2CCN(C3CC4(CCN(c5cc(Oc6cnc7[nH]ccc7c6)c(C(=O)NS(=O)(=O)c6ccc(NCC7(F)CCOCC7)c([N+](=O)[O-])c6)cc5F)CC4)C3)[C@H](c3ccccc3C(C)C)C2)cc1 [compound 193, (R)-2-((1H-pyrrolo[2,3-b]pyrid-5-yl)oxy)-5-fluoro-N-((4-(((4-fluorotetrahydro-2H-pyran-4-yl)methyl)amino)-3-nitrophenyl)sulfonyl)-4-(2-(4-(4-isopropylbenzyl)-2-(2-isopropylphenyl)piperazin-1-yl)-7-azaspiro[3.5]non-7-yl)benzamide]",> 500,< 10
"COc1ccc(CN2CCN(C3CC4(CCN(c5cc(Oc6cnc7[nH]ccc7c6)c(C(=O)NS(=O)(=O)c6ccc(NCC7(F)CCOCC7)c([N+](=O)[O-])c6)cc5F)CC4)C3)C(c3ccccc3C(C)C)C2)cc1 (stereo not drawn) [compound 066, 2-((1H-pyrrolo[2,3-b]pyrid-5-yl)oxy)-5-fluoro-N-((4-(((4-fluorotetrahydro-2H-pyran-4-yl)methyl)amino)-3-nitrophenyl)sulfonyl)-4-(2-(2-(2-isopropylphenyl)-4-(4-methoxybenzyl)piperazin-1-yl)-7-azaspiro[3.5]non-7-yl)benzamide]",> 500,< 10
"CC(C)c1ccccc1[C@@H]1CN(Cc2ccc(C3CC3)cc2)CCN1C1CC2(CCN(c3cc(Oc4cnc5[nH]ccc5c4)c(C(=O)NS(=O)(=O)c4ccc(NCC5(F)CCOCC5)c([N+](=O)[O-])c4)cc3F)CC2)C1 [compound 195, (R)-2-((1H-pyrrolo[2,3-b]pyrid-5-yl)oxy)-4-(2-(4-(4-cyclopropylbenzyl)-2-(2-isopropylphenyl)piperazin-1-yl)-7-azaspiro[3.5]non-7-yl)-5-fluoro-N-((4-(((4-fluorotetrahydro-2H-pyran-4-yl)methyl)amino)-3-nitrophenyl)sulfonyl)benzamide]",> 500,< 10
"CC(C)c1ccccc1[C@@H]1CN(Cc2c(F)cccc2F)CCN1C1CC2(CCN(c3cc(Oc4cnc5[nH]ccc5c4)c(C(=O)NS(=O)(=O)c4ccc(NC[C@H]5CC[C@](C)(O)CC5)c([N+](=O)[O-])c4)cc3F)CC2)C1 [compound 217, 2-((1H-pyrrolo[2,3-b]pyrid-5-yl)oxy)-4-(2-((R)-4-(2,6-difluorobenzyl)-2-(2-isopropylphenyl)piperazin-1-yl)-7-azaspiro[3.5]non-7-yl)-5-fluoro-N-((4-((((1r, 4r)-4-hydroxy-4-methylcyclohexyl)methyl)amino)-3-nitrophenyl)sulfonyl)benzamide]",> 500,< 10
"CC(C)c1ccccc1[C@@H]1CN(Cc2cccc3c2OCCO3)CCN1C1CC2(CCN(c3cc(Oc4cnc5[nH]ccc5c4)c(C(=O)NS(=O)(=O)c4ccc(NC[C@H]5CC[C@](C)(O)CC5)c([N+](=O)[O-])c4)cc3F)CC2)C1 [compound 227, 2-((1H-pyrrolo[2,3-b]pyrid-5-yl)oxy)-4-(2-((R)-4-((2,3-dihydrobenzo[b][1,4]dioxane-5-yl)methyl)-2-(2-isopropylphenyl)piperazin-1-yl)-7-azaspiro[3.5]non-7-yl)-5-fluoro-N-((4-((((1r, 4r)-4-hydroxy-4-methylcyclohexyl)methyl)amino)-3-nitrophenyl)sulfonyl)benzamide]",> 500,< 10
"CC(C)c1ccccc1[C@@H]1CCCN1C1CC2(CCN(c3cc(Oc4cnc5[nH]ccc5c4)c(C(=O)NS(=O)(=O)c4cc([N+](=O)[O-])c(NCC5(F)CCOCC5)c5ocnc45)cc3F)CC2)C1 [compound 103, (S)-2-((1H-pyrrolo[2,3-b]pyrid-5-yl)oxy)-5-fluoro-N-((7-(((4-fluorotetrahydro-2H-pyran-4-yl)methyl)amino)-6-nitrobenzo[d]oxazol-4-yl)sulfonyl)-4-(2-(2-(2-isopropylphenyl)pyrrolidin-1-yl)-7-azaspiro[3.5]non-7-yl)benzamide]",,< 10
"COc1cc(CN2CCN(C3CC4(CCN(c5ccc(C(=O)NS(=O)(=O)c6cc([N+](=O)[O-])c(NCC7(F)CCOCC7)c7c6OCO7)c(Oc6cnc7[nH]ccc7c6)c5)CC4)C3)[C@H](c3ccccc3C(C)C)C2)ccc1C1CC1 [compound 173, (R)-2-((1H-pyrrolo[2,3-b]pyrid-5-yl)oxy)-4-(2-(4-(4-cyclopropyl-3-methoxybenzyl)-2-(2-isopropylphenyl)piperazin-1-yl)-7-azaspiro[3.5]non-7-yl)-N-((7-(((4-fluorotetrahydro-2H-pyran-4-yl)methyl)amino)-6-nitrobenzo[d][1,3]dioxocyclopent-4-yl)sulfonyl)benzamide]",,< 10
"CC(C)c1ccccc1[C@@H]1CN(Cc2ccc(C#N)cc2)CCN1C1CC2(CCN(c3cc(Oc4cnc5[nH]ccc5c4)c(C(=O)NS(=O)(=O)c4ccc(NCC5(F)CCOCC5)c([N+](=O)[O-])c4)cc3F)CC2)C1 [compound 199, (R)-2-((1H-pyrrolo[2,3-b]pyrid-5-yl)oxy)-4-(2-(4-(4-cyanobenzyl)-2-(2-isopropylphenyl)piperazin-1-yl)-7-azaspiro[3.5]non-7-yl)-5-fluoro-N-((4-(((4-fluorotetrahydro-2H-pyran-4-yl)methyl)amino)-3-nitrophenyl)sulfonyl)benzamide]",,< 10
"CC(C)c1ccccc1C1CN(C2CCOCC2)CCN1C1CC2(CCN(c3cc(Oc4cnc5[nH]cc(F)c5c4)c(C(=O)NS(=O)(=O)c4ccc(NC[C@H]5CC[C@](C)(O)CC5)c([N+](=O)[O-])c4)cn3)CC2)C1 (stereo partly drawn) [compound 059, 4-((3-fluoro-1H-pyrrolo[2,3-b]pyrid-5-yl)oxy)-N-((4-((((1r,4r)-4-hydroxy-4-methylcyclohexyl)methyl)amino)-3-nitrophenyl)sulfonyl)-6-(2-(2-(2-isopropylphenyl)-4-(tetrahydro-2H-pyran-4-yl)piperazin-1-yl)-7-azaspiro[3.5]non-7-yl) nicotinamide]",,< 10
